Reference: patent publication US10801023B2, “Methods of identifying biologically active random peptides in plants and libraries of plants expressing candidate biologically active random peptides” (University of Florida Research Foundation, Inc., priority 2015, dated 2020)

Key:
[1] = test system: Arabidopsis thaliana plants; test: Screening of library of transformed plants expressing candidate BARPs for new phenotypes; assay type: in vivo; conditions: for new phenotype associated with the BARP: plant of the library from which the BARP sequence was isolated; for phenotype: transgenic Arabidopsis thaliana expressing the BARP, scored from emergence to senescence
Source text: In the present example, the methods of the present disclosure were used to generate a library of test nucleic acids encoding a plurality of candidate BARPs, each having a core 6 amino acid random peptide sequence flanked by two cysteine residues. The sequences were also flanked by start and stop codons and Gateway® sequences, such as illustrated in FIG. 1. PCR was used with primers corresponding to the known Gateway flanking sequences to generate the test nucleic acid library. The oligonucleotides were then cloned into bacterial vectors including genes for kanamycin resistance to create a recombination vector library. The vectors were then moved to Agrobacterium tumefaciens strain […] and used to transform Arabidopsis thaliana plants. Seeds were collected from the transformed plants and used to grow new plants. These plants were observed from seedling through the plant lifecycle and observed for new phenotypes. Several new phenotypes emerged, DNA was extracted from the plants displaying new phenotypes, and the sequence of the candidate BARP from the plants was determined. The procedures and results are described in detail below.
The test nucleic acid sequences were synthesized using conserved initiator and terminator sequences flanking 18 random nucleotides, which provides a peptide that is ten amino acids long, with six of the core amino acids randomized, following a Met-Ala-Cys and ending with a Cys-term. This template is illustrated in FIG. 1. In the present example, the corresponding nucleic acid sequence was […] (SEQ ID NO: 5; nucleotides 14-46 of SEQ ID NO: 1). The cysteine residues in this case provide potential for formation of disulfide bonds that may impart additional structure to the adjacent amino acid loop. Although in this example 18 random nucleotides (identified as “N” in SEQ ID NOs: 1 and 5) were used, any number may be used, as long as it is a multiple of three.
To construct the library of random-core BARP sequences, the above DNA sequence was synthesized as an oligonucleotide sequence, along with flanking sequences corresponding to the Gateway® recombination sequences. The middle portion of the sequence, represented by “N” in FIG. 1, were randomized nucleotides. Known synthesis techniques were used to build the sequences, resulting in a library of PCR products containing test nucleic acid sequences (start codon, spacer codon, cysteine codon, 18 random nucleotides encoding a core candidate BARP sequence, second cysteine codon, and stop codon) flanked by Gateway recombination sequences. Although Gateway® sequences were used in the present examples, other recombination cloning primer sequences could be used or specifically designed.
The library of PCR products containing random test sequences was amplified using PCR based on flanking primers containing Gateway recombination sequences. These reactions produced a population of PCR products each containing the core peptide test sequence flanked by Gateway recombination sequences. These PCR products were introduced to the vector pDONR222 using Gateway recombination, and then transformed into E. coli genotype DH5α. The transformation vector also included the NPTII gene for kanamycin resistance. The E. coli cells were plated on kanamycin plates at low density to obtain single-colony separation. The single colonies each contained a separate plasmid bearing a random peptide sequence.
The colonies were recovered from plates in liquid medium, and the plasmids were isolated. The isolated plasmids represented a library of many independent, random sequences (encoding candidate BARPs) flanked by ‘start’ and ‘stop’ sequences. […]

Arabidopsis plants = test: Plant growth and phenotyping of PEP6 / PEP12 transgenic plants; assay type: in vivo, Arabidopsis thaliana; conditions: transgenic plant in soil; normal-sized plants 25 mm to 30 mm
Source text: Two libraries encoding six- and twelve-random amino acid cyclized peptides (denoted PEP6 and PEP12, respectively) were constructed in binary vectors (as illustrated in FIG. 9) using a Gateway cloning strategy and transformed into Arabidopsis. More than 1,500 transgenic plants with the PEP6 T-DNA inserts were isolated and more than 600 transgenic plants were isolated carrying the PEP12 insert, representing a survival ratio of 1.8% and 1.2% respectively under kanamycin selection. To ensure library representation in the population, DNA was prepared from at least fifty transgenic plants, including ten that had small rosette diameter (5 mm to 10 mm) (e.g., those having BARP sequences SEQ ID NO: 14, 16, 6, 19, 21, 23, 26, 28, 30, and 32) compared to normal-sized plants (25 mm to 30 mm; see Table 2). The nucleotide sequences of all amplified random peptide open reading frames (rpORFs) were different, indicating representation of library diversity was maintained throughout the cloning and transformation process. Several phenotypes were visually apparent. […] Some plants showing multiple growth defects were recorded in each phenotype. Bolting plants with multiple inflorescences were transformed with the PEP6 or PEP12 destination library through the floral dipping method (Clough and Bent, 1998, incorporated herein by reference). For selection, seeds were surface sterilized by 70% ethanol for 5 min and 10% bleach for 20 min. Surface-sterilized seeds were plated on ½× MS basal medium with 0.5% Phyto Agar (cat. # M10200 and # A20300, Research Products International) and 50 μg/ml kanamycin for selection. Transgenic seedlings were identified by GFP expression or resistance to kanamycin. Transformed seedlings were grown to the 3-5 true leaf stage on plates and transferred to soil. DNA was extracted from each seedling (Edwards et al., 1991 incorporated herein by reference) for inserted nucleotide sequence identification. An approximately 500 bp DNA fragment containing the random peptide ORF and part of pK7WG2D vector sequence was amplified using primers PEP-F and PEP-R (SEQ ID NOs: 35 and 36, respectively) listed in Table 4 and sequenced. Arabidopsis plants were grown in soil at 20° C. under 16 hour light/8 hour dark conditions. The characterization of phenotypic variations was based on the comparison among seedlings grown in the same pot or flat.

[2] = test system: Arabidopsis thaliana plants; test: Independent replication of peptide-induced phenotypes in independent transformant lines; assay type: in vivo; conditions: BARP sequence re-introduced into Arabidopsis thaliana
Procedure: A number of first-transformed generation plants were prepared and phenotypes were observed using the methods described in Example 1, above. In this example some 12-amino-acid-long candidate BARPs were also synthesized and tested. The procedures were the same as for the 6-aa BARPs described in Example 1. These phenotypes were also observed to be stable and inherited in subsequent generations. To verify that the effects observed are due to the expressed peptide and not to other less-likely positional/insertional causes, in this Example, a substantial number of the of the candidate 6 and 12 amino-acid-long BARPs were sequenced and separately transformed into independent plants. […] One microliter was used in a PCR reaction under standard conditions, and using primers corresponding to the attachment (recombinational cloning sequences) of the Gateway vector, the corresponding BARP sequences was amplified. This sequences were then recombined into the pDONR222 vector and then re-ligated into the binary pKWDG2 over-expression vector as described above. This sequence was then re-introduced into Arabidopsis thaliana plants using the floral dipping strategy and selection as noted above. The seedlings were then analyzed for the phenotype as defined by the original transformant. Recapitulation of the phenotype in multiple, independent transformation events provided high evidence of a specific physiological effect of the peptide.

[3] = test system: Arabidopsis thaliana seedlings; test: Salt tolerance screen and root elongation on salt media; assay type: in vivo
Procedure: Also, to test for phenotypes not readily observable under normal conditions, seeds were collected from all plants in sets of nine and stored together, then planted and screened in various stress conditions to identify additional phenotypes. For example, seeds were planted on plant-growth media containing […] to screen for seedlings showing resistance to salt. Populations of BARP containing plants have also been grown in soil under water-deficit stress, leading to identification of peptides that confer tolerance to drought stress up on further evaluation.
Also, to test for phenotypes not readily observable under normal conditions, seeds were collected from all plants, stored, and later planted and screened in various stress conditions to identify additional phenotypes. […] Two lines thrived on the high-salt media, one of them resulting in a conspicuous root phenotype. […] The left-hand bars in the graph in FIG. 7A represent wild-type seedlings, and the right-hand bars show the effect of the peptide. Root elongation was measured four days after germination (Day 0) and then again at four-day intervals. Error bars represent standard error of the mean.

Arabidopsis seedlings = test: Inhibition of hypocotyl elongation under different light conditions; assay type: in vivo, Arabidopsis thaliana
Procedure: Seeds were surface sterilized using a brief treatment of 70% ethanol and then set to dry on sterile paper discs in a laminar flow hood. The seeds were placed on 1 mM KCl plus 1 mM CaCl2 media containing 1% Phyto Agar on 100 mm square plates and stratified for 48 h. The vertical plates were transferred to various light conditions of varying spectral quality and fluence rates (as described in FIGS. 12A-12B), or complete darkness. […] Plants grown in darkness were placed under one of the narrow bandwidth treatments wrapped in two layers of aluminum foil. After 96 h the plates were scanned and the seedlings were measured using ImageJ software, and the length of the seedlings was reported as a fraction of dark-grown seedling length.

MACDFLADLC (chemically synthesized peptide sequence of BARP associated with bushy seedling phenotype) [SEQ ID NO: 3]
new phenotype associated with the BARP [1]: “bushy” seedling with small and upright leaves

MACGGGCSAC (chemically synthesized peptide sequence of BARP PEP6-46) [PEPB-46]
rosette size (Arabidopsis plants): 10 mm

MACGKGSGLC (chemically synthesized peptide sequence of BARP associated with purple pigment accumulation in seed pods) [SEQ ID NO: 2]
new phenotype associated with the BARP [1]: hyperaccumulation of purple pigments in seed pods

MACKQAXQRC (chemically synthesized peptide sequence of BARP CBF6AA-85 associated with large, flat leaves and small petioles) [BARP; “X” represents a stop codon]
phenotype [1]: tiny, curly leaves
phenotype in independent transformant lines [2]: large, flat leaves with small petioles

MACNCSSDGC (chemically synthesized peptide sequence of BARP PEP6-27)
rosette size (Arabidopsis plants): 8 mm

MACPASVSVC (chemically synthesized peptide sequence of BARP 6AA-33.1 associated with salt resistance and elongated root growth) [PEP6-32, BARP associated with salt resistance, root growth and red light insensitivity]
rosette size (Arabidopsis plants): 27 mm
salt tolerance ([3]; plant-growth media containing 100 μM NaCl): salt tolerance
root elongation ([3]; seedlings on vertical agar plates under light, versus wild-type): increase in root elongation
hypocotyl length versus controls (Arabidopsis seedlings; 0.5 μmol·m^−2·s^−1 blue light): slightly longer hypocotyls
hypocotyl length versus controls (Arabidopsis seedlings; blue light, fluence rates of 2 and 10 μmol·m^−2·s^−1): differences were not observed
hypocotyl length versus wild-type controls (Arabidopsis seedlings; constant red light, fluence rates of 1, 10 and 50 μmol·m^−2·s^−1, four lines): longer hypocotyls than wild-type controls
seedling growth versus wild-type (Arabidopsis seedlings; darkness): comparable to wild-type seedlings
hypocotyl length versus controls (Arabidopsis seedlings; far red light conditions): No significant differences
hypocotyl length versus other seedlings (Arabidopsis seedlings; white light): slightly longer hypocotyls

MACPNACFSC (chemically synthesized peptide sequence of BARP PEP6-33)
rosette size (Arabidopsis plants): 9 mm

MACQELTMWC (chemically synthesized peptide sequence of BARP PEP6-30)
rosette size (Arabidopsis plants): 10 mm

MACQLMWREC (chemically synthesized peptide sequence of BARP PEP6-28)
rosette size (Arabidopsis plants): 8 mm

MACQQMLSGC (chemically synthesized peptide sequence of BARP PEP6-37)
rosette size (Arabidopsis plants): 8 mm

MACSAHCSDC (chemically synthesized peptide sequence of BARP associated with abberrant seedling characteristics) [SEQ ID NO: 4, BARP associated with strange seedling characteristics]
new phenotype associated with the BARP [1]: aberrant seedling characteristics

MACSDVSVIC (chemically synthesized peptide sequence of BARP PEP6-38)
rosette size (Arabidopsis plants): 8 mm

MACWMSRMEC (chemically synthesized peptide sequence of BARP PEP6-12)
rosette size (Arabidopsis plants): 5 mm

MACWTSSVLC (chemically synthesized peptide sequence of BARP CBF6AA-110 associated with large, flat leaves and small petioles)
phenotype [1]: tiny
phenotype in independent transformant lines [2]: large, flat leaves with small petioles

MGCVCIEPYQRLRAKC (chemically synthesized peptide sequence of BARP 12AA-97 associated with arrested plant growth)
phenotype [1]: died late
phenotype in independent transformant lines [2]: arrested plant growth
